# In US6413975B1, “Purine derivatives having phosphodiesterase iv inhibition activity” (Euro-Celtique, S.A., priority 1999, dated 2002):
# Where two headings read alike, the source gives them in different places.
# Legend:
# [1] = system: Guinea pig isolated trachealis muscle; experiment: Isolated guinea pig trachea: relaxation of airways muscle; format: cell-based; details: compared with theophylline as standard (= 1); cumulative concentration effect curves
# Method: The test compound was dissolved in dimethylsulfoxide. Guinea pig isolated trachealis muscle was mounted in a bath containing Krebs solution maintained at 37.5° C. and bubbled with carbogen (95% 02, 5% CO2).
# Tension changes were recorded isometrically using force displacement transducers in conjunction with potentiometric pen recorders.
# The ability of the test compounds to relax airways muscle was investigated by the construction of cumulative concentration effect curves. Each concentration of the test compound was allowed to equilibrate with the tissue for 5 minutes before a concentration increment (ten-fold) was made.
# In each tissue the test compound was compared with theophylline as standard.
# [2] = system: Type IV PDE; experiment: PDE IV inhibition: hydrolysis of [3H]-cyclic AMP by isolated Type IV PDE; format: biochemical, bovine; details: adenines, read-out: calc PDE IV IC50
# How it was run: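 Type IV PDE was partially purified from bovine tracheal smooth muscle by DEAE ion-exchange chromatography. Activity was measured as [3H]-cAMP hydrolysis at 0.2 μM cAMP (≈Km), with protein adjusted so that ≤15% of substrate was hydrolysed. Compounds were tested in 2.5% final DMSO.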
# [3] = system: ovalbumin-sensitized guinea pigs (eosinophils in BAL); experiment: Ovalbumin sensitization and challenge in guinea pigs, differential cell counts in bronchoalveolar lavage; format: in vivo, guinea pig; details: 5 mg/kg ip one hour prior to ovalbumin challenge
# Method: (i) The effect of test compounds in a model of bronchial hyperresponsiveness (BHR) and cellular infiltration in the guinea pig induced by ovalbumin (see, for example Morley et al, Agents and Actions, Supplement, 1988, 23, 187) were studied.
# (ii) Sensitization and Challenge procedure: Male Dunkin Hartley guine pigs (Charles River) (200-250 g) were injected i.p. with ovalbumin (OVA) (0.5 ml/animal; 20 μg OVA in AlOH)3 (moist gel)); this preparation produced an injectable stable suspension containing excess Al(OH)3. Sham animals were injected with 0.5 ml Al(OH)3 alone. After a period of 18-21 days animals were exposed to an aerosol of OVA (100 μg/ml) for 1 hour in an exposure chamber.
# (iii) Bronchoalveloar lavage: Animals were anaesthetized, 24 hours after aerosol exposure, with urethane (25%, w/v, 7 ml/kg, i.p.) and the trachea cannulated. Bronchoalveo-lar lavage (BAL) was performed by instilling 5 ml sterile saline into the lungs via the tracheal cannula and the fluid was immediately removed. The fluid was reinjected and the procedure repeated 5 times in total. […] Total cell counts were perfomed on the resultant BAL fluid using an improved Neubauer haemocytometer. Cytospin preparations were prepared using a Shandon Cytospin 2 centrifuge. Two drops of BAL fluid were added to each cytospin cup and the samples were centrifuged for 1 min at 1300 r.p.m. Slides were fixed in acetone and stained with haemotoxylin and carbol chromotrope according to the method described by Lendrum (Lendrum 1944), differential cell counts were performed on each slide by counting 200 cells at random, the cell types were classified as neutrophils, eosinophils and mononuclear cells according to standard morphological criteria. Cells were counted blind. The results are expressed as the number of neutrophils, eosinophils and mononuclear cells per ml of BAL fluid. The remaining BAL fluid was centrifuged (10 min., 1000 g) and the resultant cells and cell free supernatants were aliquotted and frozen for later assays. Compounds were solu-bilized in either DMSO or saline administered intraperitoreally at a dose of 5 mg/kg one hour prior to ovalbumin challenge.
compound,measurement,setting,value
CCNc1ncn(Cc2ccccc2)c2ncnc1-2 [3-Benzyl-6-ethylamino-3H-purine],melting point,,187 to 188 °C
same,In Vitro Activity,[1],18.5
CCCCCCn1cnc(NCC)c2ncnc1-2 [6-Ethylamino-3-hexyl-3H-purine],In Vitro Activity,[1],25.6
CCNc1ncn(CC)c2nc(C3CC3)nc1-2 [8-Cyclopropyl-3-ethyl-6-ethylamino-3H-purine],IC50,[2]; Table 7,27.1 µM
same,In Vitro Activity,[1],43.7
CCNc1ncn(CCC(C)C)c2nc(C3CC3)nc1-2.Cl [8-cyclopropyl-6-ethylamino-3-(3-methylbutyl)-3H-purine hydrochloride],IC50,"[2]; Table 4, cyclic AMP 0.2 μM",2.45 µM
same,% Eosinophils in BAL x ± se,[3]; BAL 24 hours after aerosol exposure,16 ± 4%
same,% Inhibition,[3]; eosinophils in BAL versus vehicle,52%
"Cn1c(=O)c2[nH]cnc2n(C)c1=O [Theophylline, reference compound]",In Vitro Activity,[1],1
